The experiment has as its system aortic valve vascular smooth muscle tissue. Put plainly: ALP staining of aortic valve vascular smooth muscle tissue, osteocytogenesis level. Particulars: wild-type or eNOS-deficient mice treated with IGF-1 alone; FIG. 2a. Type of experiment: in vivo, mice. On the procedure: Wild-type mice or eNOS-deficient mice which are animal models with the aortic valve calcification were treated with insulin-like growth factor type 1 (IGF-1) alone or treated with dipeptidyl-peptidase 4 (DPP-4) and IGF-1 at the same time. Then, ALP staining was performed on the aortic valve vascular smooth muscle tissue, thereby comparing the […] level of tissue (FIG. 2a). Here, the aortic valve vascular smooth muscle tissue of the wild-type mice treated with nothing or the eNOS-deficient mice was used as a control group.
FIG. 2a are an image and a graph showing verification of the effect of DPP-4 on an action of IGF-1 inhibiting osteocytogenesis in the aortic valve vascular smooth muscle tissue of the wild-type mice or the eNOS-deficient mice.

In the case of “IGF-1: polypeptide having a size of about 7.5 kDa present in a plasma of mammals; SEQ ID NO: 1”, the “osteocytogenesis of aortic valve vascular smooth muscle tissue (ALP staining)” value is given as “tended to be alleviated”.

The values above are taken from US20180031580A1, “USE OF IGF-1 AS PROGNOSTIC FACTOR IN CALCIFICATION OF AORTIC VALVES” (THE ASAN FOUNDATION, priority 2015, published 2018).
